Measurements as given in ChEMBL document CHEMBL5543121, “Drug Repurposing of ACT001 to Discover Novel Promising Sulfide Prodrugs with Improved Safety and Potent Activity for Neutrophil-Mediated Antifungal Immunotherapy” (J Med Chem, 2024).
Calls of active or inactive are those of the source. No cut-off for these calls is given here.

How the values were obtained:
[1] = Inhibition of fungal curdlan induced PD-L1 expression in mouse neutrophils at 40 uM relative to control; type: functional, Neutrophil; conditions: for inhibition at 40 µM: Mus musculus, Neutrophil; for inhibition (INH): 40 µM
Neutrophil = test: (§1) Cytotoxicity against mouse neutrophils assessed as cell viability at 40 uM relative to control; type: toxicity, cell-based; conditions: neutrophil, 40 µM
[2] = as §1; type: toxicity, cell-based, Neutrophil; conditions: mouse neutrophils, read-out: Activity
[3] = target: Signal transducer and activator of transcription 3 (Mus musculus) (UniProt P42227); test: Binding affinity to STAT3 in mouse bone marrow neutrophils at 20 uM by silver staining based pulldown assay; type: cell-based; conditions: Neutrophil
[4] = target: Signal transducer and activator of transcription 3 (Mus musculus) (UniProt P42227); test: Binding affinity to STAT3 in mouse bone marrow neutrophils at 20 uM by pulldown based Western blot analysis; type: cell-based; conditions: Neutrophil
Candida albicans [5] = test: Antifungal activity against Candida albicans SC5314 assessed as inhibition of fungal growth measured every 3 hrs for 24 hrs by absorbance based analysis; type: functional, organism-based; conditions: dose 0.25-128 µg/ml
Candida albicans [6] = test: Antifungal activity against candida albicans SC5314 infected in mouse assessed as reduction in PD-L1 positive Ly6G-positive neutrophils in kidney at 200 mg/kg, po administered on day 1 and 3; type: functional, organism-based; conditions: time 1-3 day
Candida albicans [7] = test: Antifungal activity against candida albicans SC5314 infected in mouse assessed as reduction in fungal burden in kidney at 200 mg/kg, po administered on day 1 and 3; type: functional, organism-based; conditions: time 1-3 day

Chain of Signal transducer and activator of transcription 3 (Mus musculus) (P42227 whole entry): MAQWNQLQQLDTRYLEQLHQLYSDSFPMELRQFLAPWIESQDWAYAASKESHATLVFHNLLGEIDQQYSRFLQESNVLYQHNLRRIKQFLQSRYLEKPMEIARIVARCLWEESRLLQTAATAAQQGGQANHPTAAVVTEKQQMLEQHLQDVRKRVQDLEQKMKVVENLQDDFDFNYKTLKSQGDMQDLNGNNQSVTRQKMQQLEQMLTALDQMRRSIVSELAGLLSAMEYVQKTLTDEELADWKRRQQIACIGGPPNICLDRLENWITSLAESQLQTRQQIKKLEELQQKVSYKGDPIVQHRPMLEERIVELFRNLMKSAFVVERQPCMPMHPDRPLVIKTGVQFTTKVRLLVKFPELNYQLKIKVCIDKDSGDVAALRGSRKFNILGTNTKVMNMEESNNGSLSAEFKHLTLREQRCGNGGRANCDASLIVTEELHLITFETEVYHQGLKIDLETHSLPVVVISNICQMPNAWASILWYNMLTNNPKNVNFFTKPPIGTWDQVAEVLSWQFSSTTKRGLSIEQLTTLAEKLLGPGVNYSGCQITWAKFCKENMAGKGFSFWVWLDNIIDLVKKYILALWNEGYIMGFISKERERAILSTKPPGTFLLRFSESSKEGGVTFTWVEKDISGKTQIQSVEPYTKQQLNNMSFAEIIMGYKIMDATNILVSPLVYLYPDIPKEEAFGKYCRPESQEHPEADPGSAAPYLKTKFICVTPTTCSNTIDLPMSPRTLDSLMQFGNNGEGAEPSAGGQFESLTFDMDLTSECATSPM

| Compound | inhibition at 40 µM [1] [%] | viability at 40 µM [2] [%] | also measured |
| --- | --- | --- | --- |
| CC1=C2CC[C@@](C)(O)[C@@H]2[C@H]2OC(=O)[C@@H](C[S+]([O-])c3ccc(Cl)cc3Cl)[C@@H]2CC1 (stereo in doubt; 22a) | 64.8 | – | Activity (Neutrophil): 74.28% |
| CC(C)CCS(=O)(=O)C[C@@H]1C(=O)O[C@H]2[C@H]1CC[C@]1(C)O[C@@]13CC[C@@](C)(O)[C@H]23 | 60.9 | 68.7 | – |
| CC1=C2CC[C@@](C)(O)[C@@H]2[C@H]2OC(=O)[C@@H](C[S+]([O-])c3ccc(Cl)cc3Cl)[C@@H]2CC1 (stereo in doubt; 22b) | – | – | inhibition (INH) [1]: 47.66%; Activity (Neutrophil): 21.1% |
| C[C@@]1(O)CC[C@]23O[C@@]2(C)CC[C@@H]2[C@H](OC(=O)[C@H]2CS(=O)(=O)C2CCCCC2)[C@@H]13 | 65.3 | 76.2 | – |
| COc1ccc(S(=O)(=O)C[C@@H]2C(=O)O[C@H]3[C@H]2CC[C@]2(C)O[C@@]24CC[C@@](C)(O)[C@H]34)cc1 | 77.4 | 54.8 | – |
| C[C@@]1(O)CC[C@]23O[C@@]2(C)CC[C@@H]2[C@H](OC(=O)[C@H]2CS(=O)(=O)c2ccncc2)[C@@H]13 | 65.4 | 79.4 | – |
| CC1=C2CC[C@@](C)(O)[C@@H]2[C@H]2OC(=O)[C@@H](CSc3c(Cl)cccc3Cl)[C@@H]2CC1 | 41.6 | 57.5 | – |
| C[C@@]1(O)CC[C@]23O[C@@]2(C)CC[C@@H]2[C@H](OC(=O)[C@H]2CS(=O)(=O)c2ccc(Cl)cc2Cl)[C@@H]13 | 78.8 | 74.9 | – |
| C=C1C(=O)O[C@H]2[C@H]1CCC(C)=C1CC[C@@](C)(OC(=O)CCCc3cn(CCOCCOCCOCCNC(=O)CCCC[C@H]4SC[C@H]5NC(=O)N[C@H]54)nn3)[C@@H]12 | – | – | Activity [3]: Active; Activity [4]: Active |
| C[C@@]1(O)CC[C@]23O[C@@]2(C)CC[C@@H]2[C@H](OC(=O)[C@H]2C[S+]([O-])c2ccc(Cl)cc2Cl)[C@@H]13 (stereo in doubt; 23a) | 61.1 | 59.2 | – |
| COc1ccc(S(=O)(=O)C[C@@H]2C(=O)O[C@H]3[C@H]2CCC(C)=C2CC[C@@](C)(O)[C@@H]23)cc1 | 63.5 | 39.5 | – |
| COc1ccc(SC[C@@H]2C(=O)O[C@H]3[C@H]2CCC(C)=C2CC[C@@](C)(O)[C@@H]23)cc1 | 63.2 | 88.8 | – |
| C[C@@]1(O)CC[C@]23O[C@@]2(C)CC[C@@H]2[C@H](OC(=O)[C@H]2CS(=O)(=O)c2ccc(Cl)c(Cl)c2)[C@@H]13 | 72.7 | 65.2 | – |
| C[C@@]1(O)CC[C@]23O[C@@]2(C)CC[C@@H]2[C@H](OC(=O)[C@H]2CS(=O)(=O)c2ccc(F)cc2)[C@@H]13 | 82.6 | 50.7 | – |
| CC1=C2CC[C@@](C)(O)[C@@H]2[C@H]2OC(=O)[C@@H](C)[C@@H]2CC1 | 17.3 | 98.6 | – |
| CC1=C2CC[C@@](C)(O)[C@@H]2[C@H]2OC(=O)[C@@H](CSc3ccc(C)cc3)[C@@H]2CC1 | 34.8 | 70.6 | – |
| CC1=C2CC[C@@](C)(O)[C@@H]2[C@H]2OC(=O)[C@@H](CSc3ncccn3)[C@@H]2CC1 | 49.9 | 60.2 | – |
| CC1=C2CC[C@@](C)(O)[C@@H]2[C@H]2OC(=O)[C@@H](CSc3ccc(F)cc3)[C@@H]2CC1 | 45.6 | 74.6 | – |
| OC(Cn1cncn1)(Cn1cncn1)c1ccc(F)cc1F | – | – | Activity (Candida albicans [5]): Dose-Dependent Effect |
| CC1=C2CC[C@@](C)(O)[C@@H]2[C@H]2OC(=O)[C@@H](CS(=O)(=O)C3CCCCC3)[C@@H]2CC1 | 49.5 | 66.3 | – |
| CC1=C2CC[C@@](C)(O)[C@@H]2[C@H]2OC(=O)[C@@H](CSc3ccncc3)[C@@H]2CC1 | 72.5 | 57.2 | – |
| CC1=C2CC[C@@](C)(O)[C@@H]2[C@H]2OC(=O)[C@@H](CSc3ccc(Cl)cc3Cl)[C@@H]2CC1 | 52.6 | 20.8 | – |
| CC1=C2CC[C@@](C)(O)[C@@H]2[C@H]2OC(=O)[C@@H](CSCCC(C)C)[C@@H]2CC1 | 25.2 | 101 | – |
| C[C@@]1(O)CC[C@]23O[C@@]2(C)CC[C@@H]2[C@H](OC(=O)[C@H]2CS(=O)(=O)c2ncccn2)[C@@H]13 | 85 | 55.5 | – |
| C[C@@]1(O)CC[C@]23O[C@@]2(C)CC[C@@H]2[C@H](OC(=O)[C@H]2C[S+]([O-])c2ccc(Cl)cc2Cl)[C@@H]13 (stereo in doubt; 23b) | – | – | inhibition (INH) [1]: 52.64%; Activity (Neutrophil): 65.45% |
| CC1=C2CC[C@@](C)(O)[C@@H]2[C@H]2OC(=O)[C@@H](CSC3CCCCC3)[C@@H]2CC1 | 15.8 | 101 | – |
| Cc1ccc(S(=O)(=O)C[C@@H]2C(=O)O[C@H]3[C@H]2CC[C@]2(C)O[C@@]24CC[C@@](C)(O)[C@H]34)cc1 | 82 | 71.5 | Activity (Candida albicans [6]): Active; Activity (Candida albicans [7]): Active |
| CC1=C2CC[C@@](C)(O)[C@@H]2[C@H]2OC(=O)[C@@H](CSc3ccc(Cl)c(Cl)c3)[C@@H]2CC1 | 71.1 | 86.6 | – |
